Tests used:
[1] = tested on: plasma triglycerides; assay: In Vivo Pharmacodynamic Assay (reduction in plasma triglycerides); settings: Mus musculus, po, male C57BL6 mice, gavage 0.1 to 10 mg/kg with 3 mg/kg DGAT1 inhibitor, tyloxapol
Procedure: In Vivo Pharmacodynamic Assay
This assay measures the potency of compounds by measuring the reduction in plasma triglycerides in mice treated with the test compounds compared to control animals that are treated only with the vehicle solution. Male, C57BL6 mice (10-11 weeks old, each approximately 22 g in weight) are used in this assay.
Triglycerides synthesized in the liver are secreted into circulation as a component of the Very Low Density Lipoprotein (VLDL). To prevent degradation of triglycerides in circulation by the Lipoprotein Lipase (LPL), this assay uses IV injection of a detergent, tyloxapol, which inhibits activity of LPL. Since another enzyme, DGAT1, participates in the synthesis of liver triglyceride, a saturating dose of a DGAT1 inhibitor (sodium{trans-4-[4-(4-amino-7,7-dimethyl-7H-pyrimido[4,5-b][1,4]oxazin-6-yl)phenyl]cyclohexyl}acetate, IUPAC ACDLABS naming convention, see Dow et al. Bioorg. & Med. Chem., (2011) 21(20), 6122-6128) is also used in this assay. […]
Collect the blood via cardiac puncture into tube containing the anti-coagulant EDTA. […] Freeze the plasma samples on dry ice until they are to be analyzed. […] Reduction in total triglycerides in the test mice is calculated relative to the concentration of triglycerides in the control mice.

[2] = molecular target: T1, human DGAT2 (Homo sapiens, UniProt Q96PD7); assay: Diacylglycerol Acyltransferase 2 (DGAT2) Biochemical Assay; parameters: FLAG (N); made in house; host or cells: insect SF9 cells; settings: recombinant human DGAT2 (FLAG tag, SF9), 14C oleoyl-CoA, 1 hr RT; geometric mean
T1 sequence (Q96PD7 1-388): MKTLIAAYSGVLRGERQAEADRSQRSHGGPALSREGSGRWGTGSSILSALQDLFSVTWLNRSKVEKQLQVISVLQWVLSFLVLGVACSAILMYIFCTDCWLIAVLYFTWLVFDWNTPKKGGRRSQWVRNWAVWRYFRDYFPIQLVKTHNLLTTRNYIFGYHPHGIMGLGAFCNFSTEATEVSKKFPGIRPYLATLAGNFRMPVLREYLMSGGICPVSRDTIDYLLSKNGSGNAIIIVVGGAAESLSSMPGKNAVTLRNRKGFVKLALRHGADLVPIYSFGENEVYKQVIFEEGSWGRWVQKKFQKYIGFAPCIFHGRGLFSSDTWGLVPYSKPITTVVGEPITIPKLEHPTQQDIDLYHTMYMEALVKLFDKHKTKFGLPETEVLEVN
Procedure: Diacylglycerol Acyltransferase 2 (DGAT2) Biochemical Assay
The in vitro inhibitory activity of compounds against human DGAT2 is evaluated in this assay. The assay uses recombinant human DGAT2 with a FLAG tag at the amino terminus, expressed in genetically engineered insect SF9 cells, and purified through affinity chromatography.
DGAT2 catalyzes transfer of an acyl moiety from acyl-Coenzyme A onto diacylglycerol, to form triacylglycerol. In this particular embodiment of the assay oleate is used as the acyl moiety that is transferred. To facilitate miscibility of all lipid components, all lipids used in the assay contain oleyl moiety as the only acyl group. […]
Mix SUV suspensions and compound solution with other components of the assay to achieve the following concentration of individual ingredients: TrisHCl (pH 7.5, 150 mM), sucrose (250 mM), MgCl2 (5 mM), dithiothreitol (DTT) (0.5 mM), oleoyl coenzyme A (oleoyl-CoA) (12 μM), 1-^14C oleoyl coenzyme A (oleyl-CoA-^14C) (8 μM), dioleoyl glycerol (DOG) (0.6 mM), and dioleoyl phosphatidylcholine (DOPC) (1.4 mM), DGAT2 protein (0.5 nM), DMSO (1%, v/v), with test compound concentration within a 1 nM to 100 μM range, in 30 μl total volume. […] Measure the radioactivity using a Perkin-Elmer TopCount instrument. […] Calculate the degree of inhibition of DGAT2 by measuring the radioactivity at 10 different concentrations for each compound. […]

[3] = molecular target: T1, human DGAT2; assay: Diacylglycerol Acyltransferase 2 (DGAT2) Cell-Based Assay (HepG2, 13C18-oleate incorporation into triolein); parameters: This assay uses human hepatoma cell-line, HepG2, as a source of acyltransferase activity; endogenous in cells; host or cells: HepG2 (human hepatoma); settings: HepG2 cells, 13C18-oleate incorporation into triolein normalized to POPC; geometric mean
Procedure: Diacylglycerol Acyltransferase 2 (DGAT2) Cell-Based Assay
The inhibitory activity of compounds against human DGAT2 in a cell environment is evaluated in this assay. This assay uses human hepatoma cell-line, HepG2, as a source of acyltransferase activity.
HepG2 cell line is a commonly used model for metabolic reactions that occur in human hepatocytes in vivo. Synthesis of triglyceride in this cell line is followed by measuring incorporation of isotopically labeled oleate into triolein (a triglyceride with 3 oleoyl moieties).
Dispense the HepG2 cells into a 96-well microplate, which has been previously coated with Poly-D-lysine, in an amount of 50,000 cells/well in 100 μL Minimal Essential Media (MEM) with 10% Fetal Bovine Serum (FBS). Incubate the cells for 16 hr at 37° C. Replace the cell culture medium with MEM containing 2% Bovine Serum Albumin Dissolve the test compound in 0.5% DMSO and prepare serial dilutions in half-log increments. Add the serially diluted test compound into separate wells. Incubate for 0.5 hr at 37° C. Thereafter replace the cell culture medium with a medium of the same composition, but which includes 50 μM ^13C18-oleate and 300 μM hydropropyl-β-cyclodextrine. Incubate for an additional 4 hr at 37° C. Discard the cell culture medium by flipping the microplate over thereby draining the wells and then soaking up any residual media from the wells with a paper towel. […]

[4] = tested on: LDL-c, VLDL-c and TG serum concentrations; assay: In Vivo Efficacy Model (LDL receptor-deficient mice); settings: male LDL receptor-deficient mice, fourteen days, serum vs control group
Procedure: This assay measures the potency of compounds by measuring the reduction in low density lipoprotein cholesterol (LDL-c), very low density lipoprotein cholesterol (VLDL-c), and triglycerides (TG). Male, LDL receptor-deficient mice (29 weeks old, each approximately 30 g in weight) are used in this assay.
Feed the mice a standard mouse chow diet for two weeks prior to dosing. Prepare a test solution for oral gavage by suspend the compounds in acacia at 0.3, 1, and 3 mg/mL. Separate the mice into a test group and a control group. Thereafter at the first day of the third week dose the mice in the test group with the test solution for fourteen days, BID. Similarly dose the mice in the control group with just the vehicle without any of the test compound. Four hours after the last dose euthanized the mice with CO2. Immediately collect the blood via cardiac puncture. Isolate the serum to measure serum triglycerides as well as cholesterol in individual lipoprotein fractions. Separate the lipoprotein fractions by known HPLC methods. Determine the cholesterol concentration associated with each lipoprotein fraction by a colorimetric method (Roche Cholesterol/HP Reagent 11875540), using isolated lipoprotein fractions with known cholesterol concentration as standards. Results obtained at the highest dose, 30 mg/kg, BID, expressed as the percentage of change in comparison of the LDL-c, VLDL-c and TG serum concentrations of mice in the test group to those of mice n the control group.
To enable absorption of Example 2 at the 30 mg/kg dose, prepare that compound as 1:1 (w/w) dry mixture with hydroxypropyl methylcellulose prior to addition to acacia vehicle.

[5] = tested on: liver fat content; settings: therapy with lomitapide; cited from earlier work
[6] = 30 mg/kg BID oral gavage in acacia
[7] = 30 mg/kg BID, compound as 1:1 (w/w) dry mixture with hydroxypropyl methylcellulose in acacia

Row | IC50 [2] [nM] | IC50 [3] [nM] | Compound | ED50 [1] [mg/kg] | % change LDL-c [4, 6] [%] | % change Triglycerides [4, 6] [%] | % change VLDL-c [4, 6] [%] | increase in the liver fat content [5] [fold] | % change LDL-c [4, 7] [%] | % change Triglycerides [4, 7] [%] | % change VLDL-c [4, 7] [%]
1 | 91 | 150 | CNS(=O)(=O)Cc1ccc(Oc2cc(CNc3ncc(Cl)cn3)nc(C)n2)cc1 [Example 1, 1-[4-[6-[[(5-Chloropyrimidin-2-yl)amino]methyl]-2-methyl-pyrimidin-4-yl]oxyphenyl]-N-methyl-methanesulfonamide] | 0.29 | −51 | −63 | −75 |  |  |  | 
2 |  |  | O=C(NC1CCN(CCCCC2(C(=O)NCC(F)(F)F)c3ccccc3-c3ccccc32)CC1)c1ccccc1-c1ccc(C(F)(F)F)cc1 [lomitapide] |  |  |  |  | 8 |  |  | 
3 | 120 | 150 | Cc1nc(CNc2ncc(Cl)cn2)cc(Oc2ccc(CS(N)(=O)=O)cc2)n1 [Example 2] | 0.27 |  |  |  |  | −55 | −72 | −82
